# Source: US10376558B2, “Method and compositions for synchronizing time of insemination in gilts” (UNITED-AH II, LLC, priority 2012, dated 2019)
# Assays:
# Assay type in all cases: in vivo, swine
# [1] = system: gilts; assay: Example 1: ovulation monitoring by transrectal ultrasonography after triptorelin gel at 96, 120 or 144 h after last MATRIX feeding; settings: raw average, PTK 1-07 (rep 3); for % of Sows Ovulating: 200 mcg T at 120 h
# Procedure: All gilts were individually fed MATRIX® as a top-dress for 14 days at the recommended rate of 15 mg/gilt/day. Gilts were withdrawn from MATRIX® feeding (last top feed in the morning on Day 0) and allotted to treatments. Controls were treated with a 1.2% methylcellulose gel formulation without triptorelin at 96 hours following MATRIX® withdrawal (last top-dress). The remaining gilts received 200 mcg triptorelin, as the acetate, in a 1.2% methylcellulose gel formulation intravaginally at various times after MATRIX® withdrawal. The four treatments were: 1) vehicle gel (VG) treatment at 96 hours after MATRIX® withdrawal, 2) triptorelin gel (TG) treatment at 96 hours after MATRIX® withdrawal, 3) TG treatment at 120 hours after MATRIX® withdrawal and 4) TG treatment at 144 hours after MATRIX® withdrawal. All gilts were monitored for their estrous and ovulatory status as described below. Gilts included in replicate 1 were selected from terminal line commercial production gilts located in grow/finish barns. Sexual maturity, as indicated by one or more estrous periods, was not verified prior to the start of MATRIX® feeding. Gilts included in replicate 2 were selected from a maternal line gilt population. Sexual maturity was verified by at least one estrous period verified and recorded prior to starting MATRIX® feeding.
# The ovulatory status of all gilts was monitored by transrectal ultrasonography. For replicate one, ovulation was monitored two times on Day 5, then three times a day from Day 6 to Day 8. For replicate two, ovulation was monitored three times a day from Day 5 to Day 8. An Aloka 500 ultrasound machine with a 7.5 MHz linear array transducer attached to a fixed-angle PVC stabilizing rod to facilitate insertion into the rectum was used for this purpose. The transducer and PVC rod were coated with a gynecological lubricant and gently inserted into the rectum until the ovaries were visualized, one at a time. The diameters of the three largest follicles were recorded (to the nearest 0.1 mm) at each scanning. A gilt was declared to have ovulated when the number of large follicles (≥6.5 mm) fell to less than 3.
# (§1) A single 2 mL dose of triptorelin gel or vehicle gel was deposited within approximately 1-2 cm posterior to the cervix with a catheter similar to those used for artificial insemination. The dose was delivered using a standard multi-dose applicator attached to the catheter. A new disposable sheath, which surrounds the catheter, was used for each gilt.
# Data were analyzed using the Mixed Models procedures of SAS. Models included main effects of time of treatment following the last feeding of MATRIX®, replicate, and treatment by replicate interaction. Differences between treatments were tested on least squares means estimates using the T test at P<0.05. Data for analysis were tested for assumptions of data normality.
# [2] = system: gilts; assay: Example 5: estrus detection after 100, 200 or 400 mcg triptorelin gel; settings: raw average, PTK 2-07
# Procedure: All gilts were individually fed MATRIX® as a top-dress for 14 or 15 days at the recommended rate of 15 mg/gilt/day. Gilts were withdrawn from MATRIX® feeding (last top-dress in the morning on Day 0) and allocated to each of the following treatments. Controls were vehicle gel treated (vehicle gel without triptorelin) at 120 (+/−2) hours following MATRIX® withdrawal (last top dress). The other gilts were given 100, 200 or 400 mcg triptorelin as the acetate in a methylcellulose gel formulation 120 (+/−2) hours following MATRIX® withdrawal. The four treatments were:
# For post-treatment estrus detection, gilts were housed in individual pens. Boars were housed in separate rooms, and/or at least 12 m away and downwind. To elicit signs of estrus, a mature boar was walked slowly in the alley in front of the gilts' crates, exposing each test gilt to visual, auditory and olfactory signals from the boar for up to 5 minutes. In keeping with standard practice at commercial farms, while the boar was near the front of the gilt's crate, estrus was tested by an experienced person applying back pressure to the midsection of the gilt combined with side rubbing. Estrus was confirmed when a gilt stood rigidly to the back pressure, with no vocalization and with some indication of an ear reflex. Gilts were not exposed to boars during the first three days after withdrawal of MATRIX® (Day 0 to Day 2). Estrus detection was performed daily on all gilts from Day 3 to Day 7.
# as §1
# [3] = system: gilts; assay: Example 5: ovulation monitoring by transrectal ultrasonography after 100, 200 or 400 mcg triptorelin gel at 120 h post-MATRIX; settings: 400 mcg T (n = 6 catheterized gilts)
# [4] = system: gilts; assay: Example 1: estrus detection after triptorelin gel at 96, 120 or 144 h after last MATRIX feeding; settings: raw average, PTK 1-07 (rep 3); 200 mcg T at 120 h after MATRIX withdrawal
# Procedure: All gilts were individually fed MATRIX® as a top-dress for 14 days at the recommended rate of 15 mg/gilt/day. Gilts were withdrawn from MATRIX® feeding (last top feed in the morning on Day 0) and allotted to treatments. Controls were treated with a 1.2% methylcellulose gel formulation without triptorelin at 96 hours following MATRIX® withdrawal (last top-dress). The remaining gilts received 200 mcg triptorelin, as the acetate, in a 1.2% methylcellulose gel formulation intravaginally at various times after MATRIX® withdrawal. The four treatments were: 1) vehicle gel (VG) treatment at 96 hours after MATRIX® withdrawal, 2) triptorelin gel (TG) treatment at 96 hours after MATRIX® withdrawal, 3) TG treatment at 120 hours after MATRIX® withdrawal and 4) TG treatment at 144 hours after MATRIX® withdrawal. All gilts were monitored for their estrous and ovulatory status as described below. Gilts included in replicate 1 were selected from terminal line commercial production gilts located in grow/finish barns. Sexual maturity, as indicated by one or more estrous periods, was not verified prior to the start of MATRIX® feeding. Gilts included in replicate 2 were selected from a maternal line gilt population. Sexual maturity was verified by at least one estrous period verified and recorded prior to starting MATRIX® feeding. […]
# Data were analyzed using the Mixed Models procedures of SAS. […]
# [5] = 200 mcg T at 120 h after MATRIX withdrawal
# [6] = 100 mcg T at 120 h after MATRIX withdrawal
# [7] = 400 mcg T at 120 h after MATRIX withdrawal
structure (smiles),measurement,setting,value
"CC(C)C[C@H](NC(=O)[C@@H](Cc1c[nH]c2ccccc12)NC(=O)[C@H](Cc1ccc(O)cc1)NC(=O)[C@H](CO)NC(=O)[C@H](Cc1c[nH]c2ccccc12)NC(=O)[C@H](Cc1c[nH]cn1)NC(=O)[C@@H]1CCC(=O)N1)C(=O)N[C@@H](CCCNC(=N)N)C(=O)N1CCC[C@H]1C(=O)NCC(N)=O [T, pGlu-His-Trp-Ser-Tyr-D-Trp-Leu-Arg-Pro-Gly-NH2]",% of Sows Ovulating,"[1]; 128 h post-MATRIX, 8 h post-T",0.0%
same,% of Sows Ovulating,"[1]; 136 h post-MATRIX, 16 h post-T",10.0%
same,% of Sows Ovulating,"[1]; 144 h post-MATRIX, 24 h post-T",30.0%
same,% of Sows Ovulating,"[1]; 152 h post-MATRIX, 32 h post-T",70.0%
same,% of Sows Ovulating,"[1]; 160 h post-MATRIX, 40 h post-T",80.0%
same,% of Sows Ovulating,"[1]; 168 h post-MATRIX, 48 h post-T",90.0%
same,% of Sows Ovulating,"[1]; 176 h post-MATRIX, 56 h post-T",100.0%
same,Interval from MATRIX Withdrawal to Ovulation,[1]; [5],153.6
same,Estrous Expression (%),[2]; [6],75.0%
same,Interval from MATRIX withdrawal to Estrus,[2]; [6],134.4 h
same,Estrous Expression (%),[2]; [5],81.0%
same,Interval from MATRIX withdrawal to Estrus,[2]; [5],136.9 h
same,Estrous Expression (%),[2]; [7],86.4%
same,Interval from MATRIX withdrawal to Estrus,[2]; [7],133.9 h
same,Percentage ovulated by 48 hours,[3]; after treatment,100%
same,Time at which ovulation detected,"[3]; relative to time of triptorelin gel treatment, Least Squares Mean ± SE",40 ± 8 h
same,Estrous Expression (%),[4],100.0%
same,Interval from MATRIX withdrawal to Estrus,[4],129.6 h
